What was measured:
[1] = Voxilaprevir Form VI pharmacokinetics after single and multiple doses in healthy subjects (Table 2); type: in vivo, human; details: for Ctau: mean
Protocol: Pub. No. 2015/0175625 A1. Initial studies were conducted using the crystalline Form VI of voxilaprevir. As described previously, Form VI of voxilaprevir is characterized by an X-ray powder diffractogram comprising the following peaks (±0.2°): at 14.6, 15.4, and 20.0 °2θ, as determined on a diffractometer using Cu—Kα radiation. Following single and multiple oral doses of voxilaprevir, Form VI, maximum plasma concentrations occurred between 2.0 and 5.0 hours (median tmax). […] Steady-state concentrations of voxilaprevir, Form VI were achieved after 7 days of once-daily dosing across all dose levels (Table 2).

[2] = Relative bioavailability of voxilaprevir amorphous free acid tablets vs Form VI tablets, fasted and fed, healthy subjects (Table 3); type: in vivo, human; details: human, in vivo, oral, single dose 100 mg, healthy subjects, fasted
Description: Accordingly, a spray dried dispersion of voxilaprevir in the amorphous free acid form was selected for incorporation into the tablet formulation.

**Q.** Which Ctau ([1]; multiple dose 30 mg) does the source give for `CC[C@@H]1[C@@H]2CN(C(=O)[C@H](C(C)(C)C)NC(=O)O[C@@H]3C[C@H]3CCCCC(F)(F)c3nc4ccc(OC)cc4nc3O2)[C@@H]1C(=O)N[C@]1(C(=O)NS(=O)(=O)C2(C)CC2)C[C@H]1C(F)F` [voxilaprevir, Form VI, voxilaprevir] here?
**A.** 1.9 ng/mL

**Q.** What about the Ctau ([1]; multiple dose 100 mg) of the same molecule?
**A.** 5.7 ng/mL

**Q.** What about the Ctau ([1]; multiple dose 300 mg) of the same molecule?
**A.** 10.0 ng/mL

**Q.** What about the “steady-state concentrations achieved after” value ([1]; once-daily dosing, all dose levels) of the same molecule?
**A.** 7 days

**Q.** What about the t1/2 ([1]; single dose 300 mg, median) of the same molecule?
**A.** 35.49 h

**Q.** What about the AUC(0-inf) [2] of the same molecule?
**A.** 326 ng·h/mL

**Q.** What about the Cmax ([2]; read-out: Cmax) of the same molecule?
**A.** 21.7 ng/mL
